Data taken from patent publication US20120214760A1, “TREATMENT OF URINARY TRACT INFECTIONS WITH ANTIBACTERIAL AMINOGLYCOSIDE COMPOUNDS” (Achaogen, Inc., priority 2009, published 2012).
Converted amounts (≈) assume the structure as drawn.

Experiments:
[1] = tested on: E. coli ATCC 25922 (AECO001); test: MIC, CLSI broth microdilution; type: cell-based; settings: Escherichia coli, ATCC25922, read-out: MIC AECO001, Table 1; AECO001 is ATCC25922
Summary of the method: (§1)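 Test compounds were diluted two-fold at 2× strength in Mueller Hinton Broth, then combined 1:1 with saline-suspended bacteria from an overnight agar colony to reach 5×10^5 CFU/mL. Incubation followed at 35° C. for 20 hours in ambient air, per CLSI reference methods.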

[2] = tested on: P. aeruginosa ATCC 27853 (APAE001); test: MIC, CLSI broth microdilution; type: cell-based; settings: Pseudomonas aeruginosa, ATCC27853, read-out: MIC APAE001, Table 1; APAE001 is ATCC27853
Summary of the method: as §1

| Structure (SMILES) | MIC [1] [µg/mL] | MIC [2] [µg/mL] |
| --- | --- | --- |
| CN[C@@H]1[C@@H](O)[C@@H](O[C@@H]2[C@@H](O)[C@H](O[C@H]3OC(CNCC(N)CO)=CC[C@H]3N)[C@@H](N)C[C@H]2NC(=O)[C@@H](O)CCN)OC[C@]1(C)O (stereo partly drawn) [Example 30, 6′-(2-Amino-propanol)-1-(4-amino-2(S)-hydroxy-butyryl)-sisomicin] | < 1 | 1 to 16 (≈ 1.61 to 25.7 µM) |
| CN[C@@H]1[C@@H](O)[C@@H](O[C@@H]2[C@@H](O)[C@H](O[C@H]3OC(CNCC4(O)CCNCC4)=CC[C@H]3N)[C@@H](N)C[C@H]2NC(=O)[C@@H](O)CCN)OC[C@]1(C)O [Example 31] | 1 to 16 (≈ 1.51 to 24.2 µM) | 1 to 16 (≈ 1.51 to 24.2 µM) |
| CN[C@@H]1[C@@H](O)[C@@H](O[C@@H]2[C@@H](O)[C@H](O[C@H]3OC(CN)=CC[C@H]3NCCO)[C@@H](N)C[C@H]2NC(=O)[C@@H](O)CCN)OC[C@]1(C)O [Example 98, 2′-(2-Hydroxy-ethyl)-1-(4-amino-2(S)-hydroxy-butyryl)-sisomicin] | 1 to 16 (≈ 1.69 to 27 µM) | 1 to 16 (≈ 1.69 to 27 µM) |
| CN[C@@H]1[C@@H](O)[C@@H](O[C@@H]2[C@@H](O)[C@H](O[C@H]3OC(CN)=CC[C@H]3NS(=O)(=O)CCN)[C@@H](N)C[C@H]2NC(=O)[C@@H](O)CCN)OC[C@]1(C)O [Example 93, 2′-(2-Amino-ethyl-sulfonamide)-1-(4-amino-2(S)-hydroxy-butyryl)-sisomicin] | < 1 | 1 to 16 (≈ 1.52 to 24.4 µM) |
| CN[C@@H]1[C@@H](O)[C@@H](O[C@@H]2[C@@H](O)[C@H](O[C@H]3OC(CNCCCN)=CC[C@H]3N)[C@@H](N)C[C@H]2NC(=O)[C@H](O)CN)OC[C@]1(C)O [Example 11, 6′-(3-Amino-propyl)-1-(3-amino-2(R)-hydroxy-propionyl)-sisomicin] | < 1 | 1 to 16 (≈ 1.69 to 27 µM) |
| CN[C@@H]1[C@@H](O)[C@@H](O[C@@H]2[C@@H](O)[C@H](O[C@H]3OC(CN)=CC[C@H]3NCCCN)[C@@H](N)C[C@H]2NC(=O)[C@@H](O)CCN)OC[C@]1(C)O [Example 91, 2′-(3-Amino-propyl)-1-(4-amino-2(S)-hydroxy-butyryl)-sisomicin] | < 1 | < 1 |
| CN[C@@H]1[C@@H](O)[C@@H](O[C@@H]2[C@@H](O)[C@H](O[C@H]3OC(CNCC4CC(N)C4)=CC[C@H]3N)[C@@H](N)C[C@H]2NC(=O)[C@@H](O)CCN)OC[C@]1(C)O (stereo partly drawn) [Example 33, 6′-(Methyl-trans-3-amino-cyclobutyl)-1-(4-amino-2(S)-hydroxy-butyryl)-sisomicin] | < 1 | 1 to 16 (≈ 1.58 to 25.3 µM) |
| CN[C@@H]1[C@@H](O)[C@@H](O[C@@H]2[C@@H](O)[C@H](O[C@H]3OC(CNCC(O)CCN)=CC[C@H]3N)[C@@H](N)C[C@H]2NC(=O)[C@@H](O)CN)OC[C@]1(C)O (stereo partly drawn) [Example 68, 6′-(2-Hydroxy-4-amino-butyl)-1-(3-amino-2(S)-hydroxy-propionyl)-sisomicin] | 1 to 16 (≈ 1.61 to 25.7 µM) | 1 to 16 (≈ 1.61 to 25.7 µM) |
| CN[C@@H]1[C@@H](O)[C@@H](O[C@@H]2[C@@H](O)[C@H](O[C@H]3OC(CNC(=N)N)=CC[C@H]3NC(=N)N)[C@@H](N)C[C@H]2N)OC[C@]1(C)O [Example 105, 6′,2′-bis-Guanidinium-sisomicin] | > 16 | > 16 |
| CN[C@@H]1[C@@H](O)[C@@H](O[C@@H]2[C@@H](O)[C@H](O[C@H]3OC(CNCCCCN)=CC[C@H]3N)[C@@H](N)C[C@H]2NC(=O)[C@@H](O)CCN)OC[C@]1(C)O [Example 43, 6′-(4-Amino-butyl)-1-(4-amino-2(S)-hydroxy-butyryl)-sisomicin] | < 1 | < 1 |
| CN[C@@H]1[C@@H](O)[C@@H](O[C@@H]2[C@@H](O)[C@H](O[C@H]3OC(CNCC4CCCN4)=CC[C@H]3N)[C@@H](N)C[C@H]2NC(=O)[C@@H](O)CCN)OC[C@]1(C)O (stereo partly drawn) [Example 49, 6′-(Methyl-pyrrolidin-2-yl)-1-(4-amino-2(S)-hydroxy-butyryl)-sisomicin] | < 1 | 1 to 16 (≈ 1.58 to 25.3 µM) |
| CN[C@@H]1[C@@H](O)[C@@H](O[C@@H]2[C@@H](O)[C@H](O[C@H]3OC(CNCCO)=CC[C@H]3N)[C@@H](N)C[C@H]2NC(=O)CO)OC[C@]1(C)O [Example 25, 6′-(2-Hydroxy-ethyl)-1-(2-hydroxy-acetyl)-sisomicin] | 1 to 16 (≈ 1.82 to 29.1 µM) | 1 to 16 (≈ 1.82 to 29.1 µM) |
| CN[C@@H]1[C@@H](O)[C@@H](O[C@@H]2[C@@H](O)[C@H](O[C@H]3OC(CN)=CC[C@H]3NC(=O)C(C)N)[C@@H](N)C[C@H]2NC(=O)[C@@H](O)CCN)OC[C@]1(C)O (stereo partly drawn) [Example 88, 2′-(2-Amino-propionyl)-1-(4-amino-2(S)-hydroxy-butyryl)-sisomicin] | 1 to 16 (≈ 1.61 to 25.8 µM) | 1 to 16 (≈ 1.61 to 25.8 µM) |
| CN[C@@H]1[C@@H](O)[C@@H](O[C@@H]2[C@@H](O)[C@H](O[C@H]3OC(CNCCO)=CC[C@H]3NC(=N)N)[C@@H](N)C[C@H]2N)OC[C@]1(C)O [Example 106, 6′-(2-Hydroxy-ethyl)-2′-guanidinium-sisomicin] | < 1 | 1 to 16 (≈ 1.87 to 30 µM) |
| CN[C@@H]1[C@@H](O)[C@@H](O[C@@H]2[C@@H](O)[C@H](O[C@H]3OC(CNCC4(O)CC(N)C4)=CC[C@H]3N)[C@@H](N)C[C@H]2NC(=O)C2(O)CNC2)OC[C@]1(C)O (stereo partly shown) [Example 47] | 1 to 16 (≈ 1.55 to 24.8 µM) | 1 to 16 (≈ 1.55 to 24.8 µM) |
| CN[C@@H]1[C@@H](O)[C@@H](O[C@@H]2[C@@H](O)[C@H](O[C@H]3OC(CNCC4(CN)CC4)=CC[C@H]3N)[C@@H](N)C[C@H]2NC(=O)[C@@H](O)CN)OC[C@]1(C)O [Example 66, 6′-(Methyl-1-aminomethyl-cyclopropyl)-1-(3-amino-2(S)-hydroxy-propionyl)-sisomicin] | < 1 | 1 to 16 (≈ 1.62 to 25.9 µM) |
| CN[C@@H]1[C@@H](O)[C@@H](O[C@@H]2[C@@H](O)[C@H](O[C@H]3OC(CNCCO)=CC[C@H]3N)[C@@H](N)C[C@H]2NC(=O)C2(O)CNC2)OC[C@]1(C)O [Example 37] | < 1 | 1 to 16 (≈ 1.69 to 27.1 µM) |
| CN[C@@H]1[C@@H](O)[C@@H](O[C@@H]2[C@@H](O)[C@H](O[C@H]3OC(CNCC4CCNCC4)=CC[C@H]3N)[C@@H](N)C[C@H]2NC(=O)[C@H](O)CN)OC[C@]1(C)O [Example 8, 6′-Methyl-piperidinyl-1-(3-amino-2(R)-hydroxy-propionyl)-sisomicin] | < 1 | 1 to 16 (≈ 1.58 to 25.3 µM) |
| CN[C@@H]1[C@@H](O)[C@@H](O[C@@H]2[C@@H](O)[C@H](O[C@H]3OC(CNCC(O)CO)=CC[C@H]3N)[C@@H](N)C[C@H]2NS(=O)(=O)CCN)OC[C@]1(C)O (stereo partly shown) [Example 27, 6′-(2-Hydroxy-propanol)-1-(2-amino-ethylsulfonamide)-sisomicin] | 1 to 16 (≈ 1.59 to 25.4 µM) | > 16 |
| CN[C@@H]1[C@@H](O)[C@@H](O[C@@H]2[C@@H](O)[C@H](O[C@H]3OC(CNCCCN)=CC[C@H]3N)[C@@H](N)C[C@H]2NC(=O)C(O)C2CNC2)OC[C@]1(C)O (stereo partly shown) [Example 76, 6′-(3-Amino-propyl)-1-(2-(azetidin-3-yl)-2-hydroxy-acetyl)-sisomicin] | 1 to 16 (≈ 1.62 to 25.9 µM) | 1 to 16 (≈ 1.62 to 25.9 µM) |
| CN[C@@H]1[C@@H](O)[C@@H](O[C@@H]2[C@@H](O)[C@H](O[C@H]3OC(CNC[C@H]4C[C@H](N)C4)=CC[C@H]3N)[C@@H](N)C[C@H]2NC(=O)C2(O)CNC2)OC[C@]1(C)O [Example 63] | < 1 | 1 to 16 (≈ 1.59 to 25.4 µM) |
| CN[C@@H]1[C@@H](O)[C@@H](O[C@@H]2[C@@H](O)[C@H](O[C@H]3OC(CNCC4(N)CC4)=CC[C@H]3N)[C@@H](N)C[C@H]2NC(=O)[C@@H](O)CN)OC[C@]1(C)O [Example 67, 6′-(Methyl-1-Amino-cyclopropyl)-1-(3-amino-2(S)-hydroxy-propionyl)-sisomicin] | 1 to 16 (≈ 1.66 to 26.5 µM) | 1 to 16 (≈ 1.66 to 26.5 µM) |
| CN[C@@H]1[C@@H](O)[C@@H](O[C@@H]2[C@@H](O)[C@H](O[C@H]3OC(CNCC4(CN)CC4)=CC[C@H]3N)[C@@H](N)C[C@H]2NC(=O)C2(O)CCNC2)OC[C@]1(C)O (stereo partly shown) [Example 79] | 1 to 16 (≈ 1.55 to 24.9 µM) | > 16 |
| CN[C@@H]1[C@@H](O)[C@@H](O[C@@H]2[C@@H](O)[C@H](O[C@H]3OC(CNC[C@H](O)C(=O)O)=CC[C@H]3N)[C@@H](N)C[C@H]2NC(=O)[C@@H](O)CCN)OC[C@]1(C)O [Example 50, 6′-(2(S)-Hydroxy-3-propanoic)-1-(4-amino-2(S)-hydroxy-butyryl)-sisomicin] | > 16 | > 16 |
| CN[C@@H]1[C@@H](O)[C@@H](O[C@@H]2[C@@H](O)[C@H](O[C@H]3OC(CNCC(O)CN)=CC[C@H]3N)[C@@H](N)C[C@H]2NC(=O)C2(O)CCNC2)OC[C@]1(C)O (stereo partly shown) [Example 42, 6′-(2-Hydroxy-3-amino-propyl)-1-(3-hydroxy-pyrrolidin-3-yl-acetyl)-sisomicin] | 1 to 16 (≈ 1.58 to 25.2 µM) | 1 to 16 (≈ 1.58 to 25.2 µM) |
| CN[C@@H]1[C@@H](O)[C@@H](O[C@@H]2[C@@H](O)[C@H](O[C@H]3OC(CNCC4(CN)CC4)=CC[C@H]3N)[C@@H](N)C[C@H]2NC(=O)C(O)C2CNC2)OC[C@]1(C)O (stereo partly shown) [Example 74, 6′-(Methyl-1-aminomethyl-cyclopropyl)-1-(2-(azetidin-3-yl)-2-hydroxy-acetyl)-sisomicin] | 1 to 16 (≈ 1.55 to 24.9 µM) | > 16 |
| CN[C@@H]1[C@@H](O)[C@@H](O[C@@H]2[C@@H](O)[C@H](O[C@H]3OC(CNCCO)=CC[C@H]3N)[C@@H](N)C[C@H]2NC(=O)C2(O)CC(N)C2)OC[C@]1(C)O (stereo partly shown) [Example 62] | < 1 | 1 to 16 (≈ 1.65 to 26.5 µM) |
| CN[C@@H]1[C@@H](O)[C@@H](O[C@@H]2[C@@H](O)[C@H](O[C@H]3OC(CNCC(O)CCCN)=CC[C@H]3N)[C@@H](N)C[C@H]2NC(=O)[C@@H](O)CCN)OC[C@]1(C)O (stereo partly drawn) [Example 32, 6′-(2-Hydroxy-5-amino-pentyl)-1-(4-amino-2(S)-hydroxy-butyryl)-sisomicin] | < 1 | 1 to 16 (≈ 1.54 to 24.6 µM) |
| CN[C@@H]1[C@@H](O)[C@@H](O[C@@H]2[C@@H](O)[C@H](O[C@H]3OC(CNCC(O)CN)=CC[C@H]3N)[C@@H](N)C[C@H]2NC(=O)C(O)C2CNC2)OC[C@]1(C)O (stereo partly shown) [Example 82, 6′-(2-Hydroxy-3-amino-propyl)-1-(2-(azetidin-3-yl)-2-hydroxy-acetyl)-sisomicin] | 1 to 16 (≈ 1.58 to 25.2 µM) | > 16 |
